IC50 data for 25 compounds are collected here from patent US7763728B2, “Tetrahydropyridothiophenes” (4SC AG, priority 2005, dated 2010).

The subject of assay [1] is RKO (RKOp27) human colon adenocarcinoma cells. As to the kind of experiment: Alamar Blue cell viability assay, anti-proliferative/cytotoxic activity on proliferating (uninduced) RKOp27 cells. Format: cell-based. To be noted: 72 hours incubation, absence of the inducer Ponasterone A, read-out: IC50 RKO p27 uninduced (proliferating). In outline: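 RKOp27 subclones seeded at 5000 cells/well, compounds added after 24 h in DMEM/10% FCS, quadruplicates, 72 h at 37 °C, 5% CO2. Alamar Blue fluorescence (ex 544/em 590 nm) normalised to untreated cells (1% DMSO medium) as 100%; IC50 from concentration-effect curves.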
On the technique in general: Alamar Blue is a resazurin reagent that responds to reducing activity.

In assay [2] the test system is RKO colon adenocarcinoma cells (RKOp27) arrested by the expression of ectopic p27Kip1. Put plainly: Alamar Blue cell viability assay on RKOp27 cells arrested by p27Kip1 expression induced by Ponasterone A. Format: cell-based. The note with it: Homo sapiens, 72 hours incubation, 10 μM Ponasterone A, read-out: IC50 RKO p27 induced (arrested). The procedure, abridged: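 RKOp27 cells, 15000/well, held in DMEM with 10% FCS and with or without 10 μM Ponasterone A to induce p27Kip1 arrest. Compound dilutions added 24 h after seeding, then 72 h at 37 °C in quadruplicate. Alamar Blue fluorescence (544/590 nm) gave % viability relative to untreated cells.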

Some results are limits rather than exact numbers.

`COc1ccccc1C(C)CC(=O)Nc1sc2c(c1C#N)CCN(C(=O)Cn1cnc(C)c1)C2` (racemic) [Example 135, (RS)—N-{3-Cyano-6-[2-(4-methyl-imidazol-1-yl)-ethanoyl]-4,5,6,7-tetrahydro-thieno[2,3-c]pyridin-2-yl}-3-(2-methoxy-phenyl)-butyramide]: the IC50 (commonly the concentration needed to halve the response being measured) in assay [1] was 300 to 2000 nM; in assay [2] it was at least 40000 nM.

For the compound `COCCC(=O)N1CCc2c(sc(NC(=O)CCc3cccc(OC)c3)c2C#N)C1` [Example 12, N-[3-Cyano-6-(3-methoxy-propanoyl)-4,5,6,7-tetrahydro-thieno[2,3-]pyridin-2-yl]-3-(3-methoxy-phenyl)-propionamide], the results for the IC50 in assay [1] and in assay [2] were 300 to 2000 nM and above 100000 nM, respectively.

With `COc1ccc(C)cc1CCC(=O)Nc1sc2c(c1C#N)CCN(C(=O)CCc1ccncn1)C2` [Example 38, N-[3-Cyano-6-(3-pyrimidin-4-yl-propanoyl)-4,5,6,7-tetrahydro-thieno[2,3-c]pyridin-2-yl]-3-(2-methoxy-5-methyl-phenyl)-propionamide], the IC50 in assay [1] was 300 to 2000 nM; in assay [2] it was above 100000 nM.

Consider `CCOc1ccccc1C(C)CC(=O)Nc1sc2c(c1C#N)CCN(C(=O)Cc1ccccn1)C2` (racemic) [Example 63, (RS)—N-[3-Cyano-6-(2-pyridin-2-yl-ethanoyl)-4,5,6,7-tetrahydro-thieno[2,3-c]pyridin-2-yl]-3-(2-ethoxy-phenyl)-butyramide], for which the concentration for half-maximal inhibition (IC50) in assay [1] was at most 300 nM; in assay [2], at least 10000 nM.

Regarding `CCOc1cccc(C(C)CC(=O)Nc2sc3c(c2C#N)CCN(C(=O)Cc2ccccn2)C3)c1` (racemic) [Example 61, (RS)—N-[3-Cyano-6-(2-pyridin-2-yl-ethanoyl)-4,5,6,7-tetrahydro-thieno[2,3-c]pyridin-2-yl]-3-(3-ethoxy-phenyl)-butyramide], the IC50 in assay [1] is 300 to 2000 nM; in assay [2] it was above 100000 nM.

Turning to `COc1ccccc1CCC(=O)Nc1sc2c(c1C#N)CCN(C(=O)CCc1cccnc1)C2` [Example 1, N-[3-Cyano-6-(3-pyridin-3-yl-propanoyl)-4,5,6,7-tetrahydro-thieno[2,3-c]pyridin-2-yl]-3-(2-methoxy-phenyl)-propionamide], the figures for the IC50 in assay [1] and in assay [2] were at most 300 nM and above 100000 nM, respectively.

With `COc1ccc(C)cc1CCC(=O)Nc1sc2c(c1C#N)CCN(C(=O)CCc1ccncc1)C2` [Example 124, N-[3-Cyano-6-(3-pyridin-4-yl-propanoyl)-4,5,6,7-tetrahydro-thieno[2,3-c]pyridin-2-yl]-3-(2-methoxy-5-methyl-phenyl)-propionamide], the values for the half-maximal inhibitory concentration (IC50) in assay [1] and in assay [2] were 300 to 2000 nM and at least 10000 nM, respectively.

`COc1ccc(C)cc1CCC(=O)Nc1sc2c(c1C#N)CCN(C(=O)Cn1ccnc1C)C2` [Example 132, N-{3-Cyano-6-[2-(2-methyl-imidazol-1-yl)-ethanoyl]-4,5,6,7-tetrahydro-thieno[2,3-c]pyridin-2-yl}-3-(2-methoxy-5-methyl-phenyl)-propionamide]: the results for the half-maximal inhibitory concentration (IC50) in assay [1] and in assay [2] were at most 300 nM and at least 40000 nM, respectively.

As to `COc1ccccc1C(C)CC(=O)Nc1sc2c(c1C#N)CCN(C(=O)CCc1ccccn1)C2` (racemic) [Example 94, (RS)—N-[3-Cyano-6-(3-pyridin-2-yl-propanoyl)-4,5,6,7-tetrahydro-thieno[2,3-c]pyridin-2-yl]-3-(2-methoxy-phenyl)-butyramide], the results for the IC50 in assay [1] and in assay [2] were 300 to 2000 nM and above 100000 nM, respectively.

In the case of `CCOc1ccccc1C(C)CC(=O)Nc1sc2c(c1C#N)CCN(C(=O)CCn1ccnc1C)C2` (racemic) [Example 106, (RS)—N-{3-Cyano-6-[3-(2-methyl-imidazol-1-yl)-propanoyl]-4,5,6,7-tetrahydro-thieno[2,3-c]pyridin-2-yl}-3-(2-ethoxy-phenyl)-butyramide], the IC50 in assay [1] is 300 to 2000 nM; in assay [2], at least 10000 nM.

Take `COc1ccccc1CCC(=O)Nc1sc2c(c1C#N)CCN(C(=O)CCn1cc(C)nc1C)C2` [Example 161, N-{3-Cyano-6-[3-(2,4-dimethyl-imidazol-1-yl)-propanoyl]-4,5,6,7-tetrahydro-thieno[2,3-c]pyridin-2-yl}-3-(2-methoxy-phenyl)-propionamide]: the IC50 is 300 to 2000 nM in assay [1] and at least 10000 nM in assay [2].

For `COc1ccccc1C(C)CC(=O)Nc1sc2c(c1C#N)CCN(C(=O)CCc1cccnc1)C2` (racemic) [Example 77, (RS)—N-[3-Cyano-6-(3-pyridin-3-yl-propanoyl)-4,5,6,7-tetrahydro-thieno[2,3-c]pyridin-2-yl]-3-(2-methoxy-phenyl)-butyramide], the half-inhibitory concentration (IC50) in assay [1] is 300 to 2000 nM; in assay [2], above 100000 nM.

Take `CCOc1ccccc1CCC(=O)Nc1sc2c(c1C#N)CCN(C(=O)Cc1ccncc1)C2` [Example 73, N-[3-Cyano-6-(2-pyridin-4-yl-ethanoyl)-4,5,6,7-tetrahydro-thieno[2,3-c]pyridin-2-yl]-3-(2-ethoxy-phenyl)-propionamide]: the IC50 in assay [1] was at most 300 nM; in assay [2], at least 40000 nM.

On to `COc1ccc(C)cc1CCC(=O)Nc1sc2c(c1C#N)CCN(C(=O)CCn1ccnc1C)C2` [Example 110, N-{3-Cyano-6-[3-(2-methyl-imidazol-1-yl)-propanoyl]-4,5,6,7-tetrahydro-thieno[2,3-c]pyridin-2-yl}-3-(2-methoxy-5-methyl-phenyl)-propionamide], for which the 50% inhibitory concentration (IC50) was 300 to 2000 nM in assay [1] and at least 10000 nM in assay [2].

For `COc1ccc(C)cc1CCC(=O)Nc1sc2c(c1C#N)CCN(C(=O)CCc1nccn1C)C2` [Example 118, N-{3-Cyano-6-[3-(1-methyl-1H-imidazol-2-yl)-propanoyl]-4,5,6,7-tetrahydro-thieno[2,3-c]pyridin-2-yl}-3-(2-methoxy-5-methyl-phenyl)-propionamide], the half-inhibitory concentration (IC50) in assay [1] is 300 to 2000 nM; in assay [2], at least 10000 nM.

As for `COc1ccccc1CCC(=O)Nc1sc2c(c1C#N)CCN(C(=O)Cn1ccnc1)C2` [Example 84, N-[3-Cyano-6-(2-imidazol-1-yl-ethanoyl)-4,5,6,7-tetrahydro-thieno[2,3-c]pyridin-2-yl]-3-(2-methoxy-phenyl)-propionamide], the IC50 in assay [1] is at most 300 nM; in assay [2], at least 40000 nM.

Consider `CCOc1ccccc1C(C)CC(=O)Nc1sc2c(c1C#N)CCN(C(=O)CCc1nccn1C)C2` (racemic) [Example 114, (RS)—N-{3-Cyano-6-[3-(1-methyl-1H-imidazol-2-yl)-propanoyl]-4,5,6,7-tetrahydro-thieno[2,3-c]pyridin-2-yl}-3-(2-ethoxy-phenyl)-butyramide], for which the IC50 in assay [1] was 300 to 2000 nM; in assay [2], at least 10000 nM.

`CCCC(=O)N1CCc2c(sc(NC(=O)CC(C)c3ccccc3OCC)c2C#N)C1` (racemic) [Example 90, (RS)—N-(6-Butyryl-3-cyano-4,5,6,7-tetrahydro-thieno[2,3-c]pyridin-2-yl)-3-(2-ethoxy-phenyl)-butyramide]: the IC50 is at most 300 nM in assay [1] and above 100000 nM in assay [2].

`COCC(=O)N1CCc2c(sc(NC(=O)CCc3ccccc3OC)c2C#N)C1` [Example 5, N-[3-Cyano-6-(2-methoxy-ethanoyl)-4,5,6,7-tetrahydro-thieno[2,3-c]pyridin-2-yl]-3-(2-methoxy-phenyl)-propionamide]: the values for the concentration for half-maximal inhibition (IC50) in assay [1] and in assay [2] were at most 300 nM and above 100000 nM, respectively.

In the case of `COc1cccc(CCC(=O)Nc2sc3c(c2C#N)CCN(C(=O)CCn2ccnc2)C3)c1` [Example 20, N-[3-Cyano-6-(3-imidazol-1-yl-propanoyl)-4,5,6,7-tetrahydro-thieno[2,3-c]pyridin-2-yl]-3-(3-methoxy-phenyl)-propionamide], the IC50 in assay [1] was 300 to 2000 nM; in assay [2], at least 40000 nM.

With `COc1ccccc1CCC(=O)Nc1sc2c(c1C#N)CCN(C(=O)CC(C)n1ccnc1)C2` (racemic) [Example 56, N-[3-Cyano-6-((RS)-3-imidazol-1-yl-butanoyl)-4,5,6,7-tetrahydro-thieno[2,3-c]pyridin-2-yl]-3-(2-methoxy-phenyl)-propionamide], the concentration for half-maximal inhibition (IC50) in assay [1] was 300 to 2000 nM; in assay [2] it was at least 40000 nM.

As for `COc1ccccc1CCC(=O)Nc1sc2c(c1C#N)CCN(C(=O)CCn1ccnc1C)C2` [Example 108, N-{3Cyano-6-[3-(2-methyl-imidazol-1-yl)-propanoyl]-4,5,6,7-tetrahydro-thieno[2,3-c]pyridin-2-yl}-3-(2-methoxy-phenyl)-propionamide], the concentration for half-maximal inhibition (IC50) in assay [1] was 300 to 2000 nM; in assay [2], at least 10000 nM.

With `CCOc1ccccc1CCC(=O)Nc1sc2c(c1C#N)CCN(C(=O)COCCOC)C2` [Example 25, N-{3-Cyano-6-[2-(2-methoxy-ethoxy)-ethanoyl]-4,5,6,7-tetrahydro-thieno[2,3-c]pyridin-2-yl}-3-(2-ethoxy-phenyl)-propionamide], the IC50 is at most 300 nM in assay [1] and above 100000 nM in assay [2].

In the case of `CCOc1ccccc1C(C)CC(=O)Nc1sc2c(c1C#N)CCN(C(=O)CCc1ccccn1)C2` (racemic) [Example 137, (RS)—N-[3-Cyano-6-(3-pyridin-2-yl-propanoyl)-4,5,6,7-tetrahydro-thieno[2,3-c]pyridin-2-yl]-3-(2-ethoxy-phenyl)-butyramide], the values for the IC50 in assay [1] and in assay [2] were at most 300 nM and at least 10000 nM, respectively.

Turning to `CCOc1ccccc1CCC(=O)Nc1sc2c(c1C#N)CCN(C(=O)CCn1cc(C)nc1C)C2` [Example 162, N-{3-Cyano-6-[3-(2,4-dimethyl-imidazol-1-yl)-propanoyl]-4,5,6,7-tetrahydro-thieno[2,3-c]pyridin-2-yl}-3-(2-ethoxy-phenyl)-propionamide], the figures for the IC50 in assay [1] and in assay [2] were 300 to 2000 nM and at least 10000 nM, respectively.
